Data published in publication PMC6755732, “Structural, Biochemical, and In Vivo Characterization of MtrR-Mediated Resistance to Innate Antimicrobials by the Human Pathogen Neisseria gonorrhoeae” (Journal of Bacteriology, 2019).
Values joined by “and” are separate entries in the source; they are usually repeats but may differ in a detail not shown here. Equal entries are not always repeated.

Key:
MtrR(R176E) = molecular target: T1, MtrR(R176E) (Neisseria gonorrhoeae, UniProt P39897, R176E); experiment: Isothermal titration calorimetry, MtrR(R176E) with bile salts; format: binding; details: ITC
T1 construct: hexahistidine tag with TEV protease site (N, cleaved yes); made in house; host or cells: Rosetta Gami B(DE3) pLysS cells (Novagen)
T1 sequence (P39897 whole entry R176E): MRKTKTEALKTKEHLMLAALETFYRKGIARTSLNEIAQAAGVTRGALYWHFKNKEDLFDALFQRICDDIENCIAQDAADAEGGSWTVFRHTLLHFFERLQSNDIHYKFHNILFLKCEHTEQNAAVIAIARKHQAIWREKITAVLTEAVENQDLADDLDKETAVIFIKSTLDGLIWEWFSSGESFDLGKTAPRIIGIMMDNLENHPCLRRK
Description: (§1) Purified MtrR was dialyzed extensively against buffer containing 20 mM Tris [pH 8.0], 200 mM NaCl, 10% glycerol, and 1 mM TCEP overnight at 4°C. The stock solutions and the necessary dilutions of the bile salts were prepared using this dialysis buffer. Titrations with 20 μM MtrR in the cell and 250 μM ligand in the syringe were performed using a VP-ITC microcalorimeter (Microcal Inc.). All measurements were conducted at 25°C with a stirring speed of 200 rpm. After subtraction of germane blank data, the titration data were analyzed using the program ORIGIN 5.0.
(§2) Protein purification for Isothermal Titration Calorimetry experiments and mutant […]
(§3) A codon optimized gene of MtrR was synthesized by GenScript and cloned into the pMCSG7 vector in- frame with the N-terminal Hexa- histidine tag and tobacco etch virus (TEV) protease cleavage site. This construct was used as the template for site- directed mutagenesis and to generate wild- type data in supplemental f igures 5-6 and Isothermal Titration Calorimetry data. This protein was overexpressed and purified as described in the “Materials and Methods” of the document, except the he xa -histidine tag MtrR was cleaved by TEV protease following NiNTA affinity chromatography. Cleaved MtrR was purified from tagged MtrR and cleaved hexa- histidine tag by Ni- NTA aff inity chromatography and then further purified by size exclusion chromatography (S200).
Site-directed mutagenesis
To introduce the mutations W 136L, R176A, and R176E, we performed DpnI mediated site-directed mutagenesis. Complementary oligonucleotides containing the desired mutations were obtained from IDT. PCR reactions containing two complementary primers, template DNA, Pfu DNA polymerase buffer, dNTP, and Pfu DNA polymerase were incubated at 95 °C for 30 seconds followed by 18 cycles of 95 °C for […], 55 °C for one minute, and 68 °C for 11 minutes. After cooling the reactions to 4 °C, 10 units of Dpn1 (NEB) was added to each 50 µl reaction and incubated at 37 °C for 3 hours.
The resulting plasmids were used to transform DH5α (Thermo Fisher) cells for plasmid prep. After checking the sequences to ensure the mutations had been incorporated, these plasmids were overexpressed in Rosetta Gami B(DE3) pLysS cells (Novagen)

[1] = molecular target: T2, MtrR(R176E)-mtrCDE operator DNA (Neisseria gonorrhoeae, UniProt P39897, R176E); experiment: Electrophoretic mobility shift assay, induction of MtrR(R176E); format: biochemical; details: EMSA
T2 construct: hexahistidine tag with TEV protease site (N, cleaved yes); made in house; host or cells: Rosetta Gami B(DE3) pLysS cells (Novagen)
T2 sequence (P39897 whole entry R176E): as above
Description: (§4) We hypothesized that the bile salts chenodeoxycholate and taurodeoxycholate occupied the binding pocket in which the CAPS electron density was observed. In our crystal structure, residues R176′ and W136 appear to be potentially important for H bonding and π stacking, respectively, with the ligand (see Fig. S4). Therefore, we generated and purified the single-site mutant MtrR proteins, MtrR(R176A), MtrR(R176E), and MtrR(W136L), to determine the importance of these residues for ligand binding (see the supplemental material) ([40]). First, we determined the capabilities of these single mutants to bind DNA with our FP-based assay. All the mutants were capable of binding the mtrCDE target sequence, with dissociation constants in the nanomolar range and all within 5-fold of the wild-type protein (see Fig. S7A). […] At higher concentrations (5 to 10 mM), taurodeoxycholate induced all three mutants. […]
(§5) Complementary oligodeoxynucleotides containing the MtrR binding site from the mtrC promoter (top strand, 5′-[…]-3′; an unusual pseudo-direct repeat is underlined) were annealed by heating an equimolar mixture of the top and bottom strands at 95°C for 5 min, followed by slow cooling to room temperature. […] The gels were stained with ethidium bromide and visualized and analyzed with an Alpha Innotech gel documentation instrument. The intensities of free DNA were measured with ImageJII ([61], [62]).

[2] = molecular target: T3, MtrR(W136L)-mtrCDE operator DNA (Neisseria gonorrhoeae, UniProt P39897, W136L); experiment: Electrophoretic mobility shift assay, induction of MtrR(W136L); format: biochemical; details: EMSA
T3 construct: hexahistidine tag with TEV protease site (N, cleaved yes); made in house; host or cells: Rosetta Gami B(DE3) pLysS cells (Novagen)
T3 sequence (P39897 whole entry W136L): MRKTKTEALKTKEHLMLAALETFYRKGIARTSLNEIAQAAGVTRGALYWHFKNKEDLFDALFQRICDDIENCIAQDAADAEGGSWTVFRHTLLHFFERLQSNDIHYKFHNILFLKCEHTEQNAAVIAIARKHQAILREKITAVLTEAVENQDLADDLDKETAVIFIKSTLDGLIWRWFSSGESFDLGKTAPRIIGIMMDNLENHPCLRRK
Description: as §4, §5

MtrR = molecular target: T4, MtrR (Neisseria gonorrhoeae, UniProt P39897); experiment: Isothermal titration calorimetry, wild-type MtrR with bile salts; format: binding; details: ITC; for Stoichiometry N, WT MtrR: bile salt per MtrR
T4 construct: A codon optimized gene of MtrR was synthesized by GenScript and cloned into the; hexahistidine tag with TEV protease site (N, cleaved yes); made in house
T4 sequence (P39897 whole entry): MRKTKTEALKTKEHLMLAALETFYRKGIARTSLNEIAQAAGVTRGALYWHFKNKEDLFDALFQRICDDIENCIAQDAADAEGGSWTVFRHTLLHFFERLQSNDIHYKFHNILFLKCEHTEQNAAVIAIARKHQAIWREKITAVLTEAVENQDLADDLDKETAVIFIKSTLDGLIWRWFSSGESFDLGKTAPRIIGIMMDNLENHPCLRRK
Description: as §1, §2, §3

MtrR(W136L) = molecular target: T5, MtrR(W136L) (Neisseria gonorrhoeae, UniProt P39897, W136L); experiment: Isothermal titration calorimetry, MtrR(W136L) with bile salts; format: binding; details: ITC
T5 construct: hexahistidine tag with TEV protease site (N, cleaved yes); made in house; host or cells: Rosetta Gami B(DE3) pLysS cells (Novagen)
T5 sequence (P39897 whole entry W136L): as the sequence (P39897 whole entry W136L) above
Description: as §1, §2
A codon optimized gene of MtrR was synthesized by GenScript and cloned into the pMCSG7 vector in- frame with the N-terminal Hexa- histidine tag and tobacco etch virus (TEV) protease cleavage site. This construct was used as the template for site- directed mutagenesis and to generate wild- type data in supplemental f igures 5-6 and Isothermal Titration Calorimetry data. This protein was overexpressed and purified as described in the “Materials and Methods” of the document, except the he xa -histidine tag MtrR was cleaved by TEV protease following NiNTA affinity chromatography. […]

[3] = molecular target: T6, MtrR(R176A)-mtrCDE operator DNA (Neisseria gonorrhoeae, UniProt P39897, R176A); experiment: Electrophoretic mobility shift assay, induction of MtrR(R176A); format: biochemical; details: EMSA
T6 construct: hexahistidine tag with TEV protease site (N, cleaved yes); made in house; host or cells: Rosetta Gami B(DE3) pLysS cells (Novagen)
T6 sequence (P39897 whole entry R176A): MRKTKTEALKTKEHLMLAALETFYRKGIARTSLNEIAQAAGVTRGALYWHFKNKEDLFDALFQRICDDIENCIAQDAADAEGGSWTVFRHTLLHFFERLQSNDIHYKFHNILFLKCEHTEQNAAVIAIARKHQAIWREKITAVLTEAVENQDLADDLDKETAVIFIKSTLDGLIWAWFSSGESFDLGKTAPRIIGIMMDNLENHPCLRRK
Description: as §4, §5

WT MtrR = molecular target: T7, WT MtrR (Neisseria gonorrhoeae, UniProt P39897); experiment: ITC ligand competition, WT MtrR presaturated with one bile salt and titrated with the second; format: binding; details: WT MtrR (20 μM) preincubated with 20 μM taurodeoxycholate overnight at 4°C
T7 construct: A codon optimized gene of MtrR was synthesized by GenScript and cloned into the; hexahistidine tag with TEV protease site (N, cleaved yes); made in house
T7 sequence (P39897 whole entry): as the sequence (P39897 whole entry) above
Description: (A to D) Isothermal titration calorimetry thermograms and resulting binding isotherms for binding reactions between MtrR(R176E) and chenodeoxycholate (A) and taurodeoxycholate (B), as well as between MtrR(W136L) and chenodeoxycholate (C) and taurodeoxycholate (D). (E and F) Isothermal titration calorimetry thermograms and resulting binding isotherms for ligand competition assays. (E) WT MtrR (20 μM) was incubated with 20 μM taurodeoxycholate overnight at 4°C; chenodeoxycholate was titrated into MtrR-TDCA. (F) WT MtrR (20 μM) was incubated with 20 μM chenodeoxycholate overnight at 4°C; taurodeoxycholate was titrated into MtrR-CDCA.
This finding supports the idea that these ligands occupy different binding sites on MtrR and that the binding of taurodeoxycholate occludes, either directly or allosterically, the binding site of chenodeoxycholate. With our current data, we cannot determine the exact binding location of taurodeoxycholate. […]
Purified MtrR was dialyzed extensively against buffer containing 20 mM Tris [pH 8.0], 200 mM NaCl, 10% glycerol, and 1 mM TCEP overnight at 4°C. […] After subtraction of germane blank data, the titration data were analyzed using the program ORIGIN 5.0.

## C[C@H](CCC(=O)O)[C@H]1CC[C@H]2[C@@H]3[C@H](O)C[C@@H]4C[C@H](O)CC[C@]4(C)[C@H]3CC[C@]12C [Chenodeoxycholate, chenodeoxycholate]
MtrR(R176E)
  Stoichiometry N, MtrR(R176E): 0.521 ± 0.038
  ΔH, MtrR(R176E): -12.979 ± 8.228 kcal/mol
  ΔS, MtrR(R176E): -23.00 ± 31.48 cal/mol/deg
MtrR(R176E); read-out: Kd of bile salt binding to MtrR(R176E)
  Kd: 97 ± 64 µM
[1]
  Concentration that induces (dissociates from mtrCDE operator DNA) MtrR(R176E): did not induce either MtrR(R176A) or MtrR(R176E) to the same degree as the wild-type protein
[2]
  Concentration that induces (dissociates from mtrCDE operator DNA) MtrR(W136L): 5 to 10 mM
MtrR
  ΔH, WT MtrR: -4.127 ± 0.739 kcal/mol
  ΔS, WT MtrR: 10.85 ± 3.13 cal/mol/deg
  Stoichiometry N, WT MtrR: 0.444 ± 0.097
MtrR; 25°C, 20 μM MtrR in cell, 250 μM ligand in syringe, read-out: Kd of bile salt binding to WT MtrR
  Kd: 4.4 µM and ~5 µM
MtrR; listed as CDCA
  Stoichiometry N, WT MtrR: ~ 0.5
MtrR; listed as chenodeoxycholate
  Stoichiometry N, WT MtrR: one molecule of bile salt per MtrR dimer
MtrR(W136L)
  Kd of bile salt binding to MtrR(W136L): No binding
[3]
  Concentration that induces (dissociates from mtrCDE operator DNA) MtrR(R176A): did not induce either MtrR(R176A) or MtrR(R176E) to the same degree as the wild-type protein
WT MtrR
  Binding, ligand competition: chenodeoxycholate titrated into MtrR-TDCA: minimal binding
